From patent publication US20250051277A1, “DELIVERY OF THERAPEUTIC ALKALOID COMPOUNDS” (Sensorium Therapeutics, Inc., priority 2021, published 2025)
Like-named read-outs stand apart in the source and are kept apart here.

Columns and labels:
[1] = 10 μM
Procedure: (§1) 50 μL aliquots of positive controls and test compounds spiked into rat or human plasma (n=2) were added to a pre-warmed plate (37° C.) and shaken at 50 rpm. At each respective time point, the reaction was stopped by adding 500 μL of acetonitrile containing internal standards (100 nM aprozolam, 200 nM caffeine, 100 nM tolbutamide). All samples were vortexed for 10 minutes, followed by centrifugation at 3,220 g for 30 minutes to precipitate proteins. 100 μL of the supernatant is transferred to a new plate. The supernatant will be diluted with ultrapure water according to the LC-MS signal response and peak shape.

[2] = 10 μM; remark: listed apart in the source
Procedure: as §1

COCCCCC(=O)OC1=C[C@@H]2N(C)CC[C@]2(c2ccc(OC)c(OC)c2)CC1 [Compound 404, (3aS,7aS)-3a-(3,4-dimethoxyphenyl)-1-methyl-2,3,3a,4,5,7a-hexahydro-1H-indol-6-yl5-methoxypentanoate]
Prodrug (%) remaining, Human Plasma ([1]; 0 h): 100.0%
Prodrug (%) remaining, Human Plasma ([1]; 10 min): 22.9%
Prodrug (%) remaining, Human Plasma ([1]; 0.5 h): 11.5%
Prodrug (%) remaining, Human Plasma ([1]; 1 h): 7.6%
Prodrug (%) remaining, Human Plasma ([1]; 2 h): 3.8%
Prodrug (%) remaining, Human Plasma ([1]; 4 h): 1.6%
Prodrug (%) remaining, Rat Plasma ([2]; 0 h): 100.0%
Prodrug (%) remaining, Rat Plasma ([2]; 10 min): 0.3%
Prodrug (%) remaining, Rat Plasma ([2]; 0.5 h): 0.3%
Prodrug (%) remaining, Rat Plasma ([2]; 1 h): 0.3%
Prodrug (%) remaining, Rat Plasma ([2]; 2 h): 0.3%
Prodrug (%) remaining, Rat Plasma ([2]; 4 h): 0.2%

COCCOCCC(=O)OC1=C[C@@H]2N(C)CC[C@]2(c2ccc(OC)c(OC)c2)CC1 [Compound 405, (3aS,7aS)-3a-(3,4-dimethoxyphenyl)-1-methyl-2,3,3a,4,5,7a-hexahydro-1H-indol-6-yl3-(2-methoxyethoxy)propanoate]
Prodrug (%) remaining, Human Plasma ([1]; 0 h): 100.0%
Prodrug (%) remaining, Human Plasma ([1]; 10 min): >99%
Prodrug (%) remaining, Human Plasma ([1]; 0.5 h): 95.0%
Prodrug (%) remaining, Human Plasma ([1]; 1 h): 87.0%
Prodrug (%) remaining, Human Plasma ([1]; 2 h): 65.7%
Prodrug (%) remaining, Human Plasma ([1]; 4 h): 46.7%
Prodrug (%) remaining, Rat Plasma ([2]; 0 h): 100.0%
Prodrug (%) remaining, Rat Plasma ([2]; 10 min): 0.1%
Prodrug (%) remaining, Rat Plasma ([2]; 0.5 h): 0.0%
Prodrug (%) remaining, Rat Plasma ([2]; 1 h): 0.1%
Prodrug (%) remaining, Rat Plasma ([2]; 2 h): 0.0%
Prodrug (%) remaining, Rat Plasma ([2]; 4 h): 0.0%

CCC(C)C(=O)OC1=C[C@@H]2N(C)CC[C@]2(c2ccc(OC)c(OC)c2)CC1 (stereo partly drawn) [Compound 425, (3aS,7aS)-3a-(3,4-dimethoxyphenyl)-1-methyl-2,3,3a,4,5,7a-hexahydro-1H-indol-6-yl2-methylbutanoate]
Prodrug (%) remaining, Human Plasma ([1]; 0 h): 100.0%
Prodrug (%) remaining, Human Plasma ([1]; 10 min): 6.5%
Prodrug (%) remaining, Human Plasma ([1]; 0.5 h): 4.8%
Prodrug (%) remaining, Human Plasma ([1]; 1 h): 4.0%
Prodrug (%) remaining, Human Plasma ([1]; 2 h): 3.0%
Prodrug (%) remaining, Human Plasma ([1]; 4 h): 1.9%
Prodrug (%) remaining, Rat Plasma ([2]; 0 h): 100.0%
Prodrug (%) remaining, Rat Plasma ([2]; 10 min): 4.4%
Prodrug (%) remaining, Rat Plasma ([2]; 0.5 h): 0.1%
Prodrug (%) remaining, Rat Plasma ([2]; 1 h): 0.0%
Prodrug (%) remaining, Rat Plasma ([2]; 2 h): 0.0%
Prodrug (%) remaining, Rat Plasma ([2]; 4 h): 0.0%

CCC(CC)C(=O)OC1=C[C@@H]2N(C)CC[C@]2(c2ccc(OC)c(OC)c2)CC1 [Compound 426, (3aS,7aS)-3a-(3,4-dimethoxyphenyl)-1-methyl-2,3,3a,4,5,7a-hexahydro-1H-indol-6-yl2-ethylbutanoate]
Prodrug (%) remaining, Human Plasma ([1]; 0 h): 100.0%
Prodrug (%) remaining, Human Plasma ([1]; 10 min): 87.1%
Prodrug (%) remaining, Human Plasma ([1]; 0.5 h): 80.3%
Prodrug (%) remaining, Human Plasma ([1]; 1 h): 79.2%
Prodrug (%) remaining, Human Plasma ([1]; 2 h): 73.6%
Prodrug (%) remaining, Human Plasma ([1]; 4 h): 66.4%
Prodrug (%) remaining, Rat Plasma ([2]; 0 h): 100.0%
Prodrug (%) remaining, Rat Plasma ([2]; 10 min): 70.2%
Prodrug (%) remaining, Rat Plasma ([2]; 0.5 h): 33.2%
Prodrug (%) remaining, Rat Plasma ([2]; 1 h): 9.5%
Prodrug (%) remaining, Rat Plasma ([2]; 2 h): 0.9%
Prodrug (%) remaining, Rat Plasma ([2]; 4 h): 0.1%

CCCC(CCC)C(=O)OC1=C[C@@H]2N(C)CC[C@]2(c2ccc(OC)c(OC)c2)CC1 [Compound 427, (3aS,7aS)-3a-(3,4-dimethoxyphenyl)-1-methyl-2,3,3a,4,5,7a-hexahydro-1H-indol-6-yl2-propylpentanoate]
Prodrug (%) remaining, Human Plasma ([1]; 0 h): 100.0%
Prodrug (%) remaining, Human Plasma ([1]; 10 min): >99%
Prodrug (%) remaining, Human Plasma ([1]; 0.5 h): 96.6%
Prodrug (%) remaining, Human Plasma ([1]; 1 h): 96.9%
Prodrug (%) remaining, Human Plasma ([1]; 2 h): 95.5%
Prodrug (%) remaining, Human Plasma ([1]; 4 h): 91.2%
Prodrug (%) remaining, Rat Plasma ([2]; 0 h): 100.0%
Prodrug (%) remaining, Rat Plasma ([2]; 10 min): 93.6%
Prodrug (%) remaining, Rat Plasma ([2]; 0.5 h): 73.4%
Prodrug (%) remaining, Rat Plasma ([2]; 1 h): 43.9%
Prodrug (%) remaining, Rat Plasma ([2]; 2 h): 16.0%
Prodrug (%) remaining, Rat Plasma ([2]; 4 h): 2.3%

CCC(C)(C)C(=O)OC1=C[C@@H]2N(C)CC[C@]2(c2ccc(OC)c(OC)c2)CC1 [Compound 428, (3aS,7aS)-3a-(3,4-dimethoxyphenyl)-1-methyl-2,3,3a,4,5,7a-hexahydro-1H-indol-6-yl2,2-dimethylbutanoate]
Prodrug (%) remaining, Human Plasma ([1]; 0 h): 100.0%
Prodrug (%) remaining, Human Plasma ([1]; 10 min): 82.9%
Prodrug (%) remaining, Human Plasma ([1]; 0.5 h): 74.5%
Prodrug (%) remaining, Human Plasma ([1]; 1 h): 69.1%
Prodrug (%) remaining, Human Plasma ([1]; 2 h): 56.8%
Prodrug (%) remaining, Human Plasma ([1]; 4 h): 46.0%
Prodrug (%) remaining, Rat Plasma ([2]; 0 h): 100.0%
Prodrug (%) remaining, Rat Plasma ([2]; 10 min): 90.3%
Prodrug (%) remaining, Rat Plasma ([2]; 0.5 h): 69.9%
Prodrug (%) remaining, Rat Plasma ([2]; 1 h): 41.7%
Prodrug (%) remaining, Rat Plasma ([2]; 2 h): 18.1%
Prodrug (%) remaining, Rat Plasma ([2]; 4 h): 3.9%

CCCC(C)(C)C(=O)OC1=C[C@@H]2N(C)CC[C@]2(c2ccc(OC)c(OC)c2)CC1 [Compound 429, (3aS,7aS)-3a-(3,4-dimethoxyphenyl)-1-methyl-2,3,3a,4,5,7a-hexahydro-1H-indol-6-yl2,2-dimethylpentanoate]
Prodrug (%) remaining, Human Plasma ([1]; 0 h): 100.0%
Prodrug (%) remaining, Human Plasma ([1]; 10 min): >99%
Prodrug (%) remaining, Human Plasma ([1]; 0.5 h): 96.3%
Prodrug (%) remaining, Human Plasma ([1]; 1 h): 95.3%
Prodrug (%) remaining, Human Plasma ([1]; 2 h): 91.8%
Prodrug (%) remaining, Human Plasma ([1]; 4 h): 84.6%
Prodrug (%) remaining, Rat Plasma ([2]; 0 h): 100.0%
Prodrug (%) remaining, Rat Plasma ([2]; 10 min): 90.4%
Prodrug (%) remaining, Rat Plasma ([2]; 0.5 h): 83.9%
Prodrug (%) remaining, Rat Plasma ([2]; 1 h): 71.9%
Prodrug (%) remaining, Rat Plasma ([2]; 2 h): 50.8%
Prodrug (%) remaining, Rat Plasma ([2]; 4 h): 26.2%

CCC(C)(CC)C(=O)OC1=C[C@@H]2N(C)CC[C@]2(c2ccc(OC)c(OC)c2)CC1 [Compound 430, (3aS,7aS)-3a-(3,4-dimethoxyphenyl)-1-methyl-2,3,3a,4,5,7a-hexahydro-1H-indol-6-yl2-ethyl-2-methylbutanoate]
Prodrug (%) remaining, Human Plasma ([1]; 0 h): 100.0%
Prodrug (%) remaining, Human Plasma ([1]; 10 min): >99%
Prodrug (%) remaining, Human Plasma ([1]; 0.5 h): >99%
Prodrug (%) remaining, Human Plasma ([1]; 1 h): >99%
Prodrug (%) remaining, Human Plasma ([1]; 2 h): >99%
Prodrug (%) remaining, Human Plasma ([1]; 4 h): 95.9%
Prodrug (%) remaining, Rat Plasma ([2]; 0 h): 100.0%
Prodrug (%) remaining, Rat Plasma ([2]; 10 min): 98.2%
Prodrug (%) remaining, Rat Plasma ([2]; 0.5 h): 98.3%
Prodrug (%) remaining, Rat Plasma ([2]; 1 h): 97.1%
Prodrug (%) remaining, Rat Plasma ([2]; 2 h): 94.1%
Prodrug (%) remaining, Rat Plasma ([2]; 4 h): 92.8%

COc1ccc([C@@]23CCC(OC(=O)CC(C)(C)C)=C[C@@H]2N(C)CC3)cc1OC [Compound 431, (3aS,7aS)-3a-(3,4-dimethoxyphenyl)-1-methyl-2,3,3a,4,5,7a-hexahydro-1H-indol-6-yl3,3-dimethylbutanoate]
Prodrug (%) remaining, Human Plasma ([1]; 0 h): 100.0%
Prodrug (%) remaining, Human Plasma ([1]; 10 min): 82.1%
Prodrug (%) remaining, Human Plasma ([1]; 0.5 h): 69.0%
Prodrug (%) remaining, Human Plasma ([1]; 1 h): 62.8%
Prodrug (%) remaining, Human Plasma ([1]; 2 h): 52.6%
Prodrug (%) remaining, Human Plasma ([1]; 4 h): 37.4%
Prodrug (%) remaining, Rat Plasma ([2]; 0 h): 100.0%
Prodrug (%) remaining, Rat Plasma ([2]; 10 min): 74.5%
Prodrug (%) remaining, Rat Plasma ([2]; 0.5 h): 45.7%
Prodrug (%) remaining, Rat Plasma ([2]; 1 h): 16.5%
Prodrug (%) remaining, Rat Plasma ([2]; 2 h): 2.3%
Prodrug (%) remaining, Rat Plasma ([2]; 4 h): 0.2%
